Source: patent publication US4424229A, “Fluorine containing 2,4,5-triphenylimidazoles” (A/S Dumex (Dumex Ltd.), priority 1982, dated 1984)
Read-outs that look alike come from different tables or passages of the source.

Key:
[1] = test system: acetic acid induced writhing movements; test: Writhing test in mice (acetic acid); assay type: in vivo, mice (NMRI/BOM); details: Mus musculus, po, 20 min, read-out: Analgesic ED50, writhing test
Protocol: (§1) Tests for analgesic activity
(§2) 1. Writhing test in mice. (SPF females of the strain NMRI/BOM, weighing 20-25 g). The test substance was administered by gavage 1/2 hour prior to an intraperitoneal injection of acetic acid. The number of writhing movements in 20 minutes was counted.

PG-synthetase = test: Prostaglandin-synthetase inhibition test (Vane); assay type: biochemical; details: AA = arachidonic acid
[2] = test system: arachidonic acid induced bronchoconstrictions; test: Inhibition of arachidonic acid induced bronchoconstrictions in guinea-pigs; assay type: in vivo; details: Cavia porcellus, read-out: Inhibition of arachidonic acid induced bronchoconstrictions ID50
Protocol: Inhibition of arachidonic acid (AA) induced bronchoconstrictions in guinea-pigs. Test compounds were given intravenously to anaesthetized guinea-pigs 5 min. before intravenous injection of AA (200-500 μg/kg). Bronchial pressure was measured and percent inhibition calculated as compared to the mean of 3 preceding AA-induced control constrictions obtained after injection of vehicle in the same animal.

[3] = test system: arachidonic acid induced aggregation of human platelet rich plasma; test: Platelet aggregation inhibition test (arachidonic acid induced, human platelet rich plasma); assay type: cell-based; details: AA = arachidonic acid
Protocol: Platelet aggregation inhibition test The ability of the test substance to inhibit arachidonic acid induced aggregation of human platelet rich plasma was tested in a HU aggregometer (from H. Upchurch & Co. Ltd.).

in vivo = details: mouse; for LD50 at 168 h: po, read-out: Acute toxicity LD50
Protocol: Test for acute toxicity (LD50) in mice
The test substance was administered by gavage.

[4] = Ulcerogenic activity in rats; assay type: in vivo, rats (Sprague-Dawley); details: rat, in vivo, po
Protocol: (§3) Ulcerogenic activity in rats
(§4) SPF males of the strain Sprague-Dawley weighing 180-250 g were used. 5 hours after administration by gavage of the test substance the rates were killed by an overdose of ether. The stomachs were removed and opened along the greater curvature. The number of ulcers was assessed and compared to control rats.

[5] = test system: brewer's yeast injected rat paw; test: Randall-Selitto test in rats (analgesia-meter, brewer's yeast paw); assay type: in vivo, rats (Sprague-Dawley); details: po, gavage 2 hours after brewer's yeast in paw, read-out: Analgesic ED50, analgesia-meter
Protocol: Tests for analgesic activity 2. Randall-Selitto test in rats. (SPF males of the strain Sprague-Dawley, weighing 90-100 g). The test was performed on the whole as described by Randall and Selitto: Arch. Int. Pharmacodyn. Ther. 111, 409 (1957).

[6] = Tests for analgesic activity (general); assay type: in vivo, mice; rats; details: compared with the compounds of the invention, or general
Protocol: as §1, §2
2. Randall-Selitto test in rats. (SPF males of the strain Sprague-Dawley, weighing 90-100 g). The test was performed on the whole as described by Randall and Selitto: Arch. Int. Pharmacodyn. Ther. 111, 409 (1957). An analgesia-meter of the make Ugo Basile was used and the test substance was administered by gavage 2 hours after injection of a suspension of brewer's yeast into the rat paw.

[7] = test system: carrageenin-injected rat paw; test: Test for antiinflammatory activity in rats (carrageenin paw); assay type: in vivo, rats (Sprague-Dawley); details: po, read-out: Antiinflammatory test ED50
Protocol: Test for antiinflammatory activity in rats SPF males of the strain Sprague-Dawley, weighing~150 g were used. The test was performed according to Winter et al.: Proc. Soc. […] The test substance was given by gavage 1 hour prior to injection of a carrageenin-suspension into the rat paw.

stomach ulcers = test: Ulcerogenic activity in rats; assay type: in vivo, rats (Sprague-Dawley); details: rats, gavage, 5 hours
Protocol: as §3, §4

[8] = mice, gavage 1/2 hour before i.p. acetic acid, writhings in 20 minutes
[9] = guinea-pigs, intravenous, 5 min before i.v. AA (200-500 μg/kg)

SMILES | ED50 [1, 8] [mg/kg] | Inhibition of PG-synthetase IC50 (PG-synthetase) [μg/10 μg AA] | ED50 [2, 9] [mg/kg] | Inhibition of platelet aggregation IC100 [3] [μg/190 μg AA] | further results
COc1ccc(-c2nc(-c3ccc(F)cc3)n(CCC(=O)O)c2-c2ccc(OC)cc2)cc1 [Compound 1, 1-(2-Carboxyethyl)-2-(4-fluorphenyl)-4,5-bis(4-methoxyphenyl)imidazole, reference compound] | > 200 | – | – | – | –
COc1ccc(-c2nc(-c3ccccc3F)[nH]c2-c2ccc(OC)cc2)cc1 [Compound 2, 2-(2-Fluorphenyl)-4,5-bis(4-methoxyphenyl)imidazole] | 15 | 0.23 | 0.0106 | 0.024 | –
COc1ccc(-c2nc(-c3cccc(F)c3)[nH]c2-c2ccc(OC)cc2)cc1 [Compound 3, 2-(3-Fluorphenyl)-4,5-bis(4-methoxyphenyl)imidazole] | 3.2 | 0.21 | 0.0036 | 0.12 | –
COc1ccc(-c2nc(-c3ccc(F)cc3)[nH]c2-c2ccc(OC)cc2)cc1 [Compound 4, 2-(4-Fluorphenyl)-4,5-bis(4-methoxyphenyl)imidazole] | 5 | 0.18 | 0.0047 | 0.048 | –
COc1ccc(-c2nc(-c3cccc(F)c3F)[nH]c2-c2ccc(OC)cc2)cc1 [Compound 5, 2-(2,3-Difluorphenyl)-4,5-bis(4-methoxyphenyl)imidazole] | 4.6 | 0.21 | 0.0087 | 0.024 | LD50 at 168 h (in vivo): 3120 mg/kg
COc1ccc(-c2nc(-c3ccc(F)cc3F)[nH]c2-c2ccc(OC)cc2)cc1 [Compound 6, 2-(2,4-Difluorphenyl)-4,5-bis(4-methoxyphenyl)imidazole] | 4 | 0.27 | 0.0021 | 0.12 | TD50 at 5 h [4]: 1580 mg/kg
COc1ccc(-c2nc(-c3cc(F)ccc3F)[nH]c2-c2ccc(OC)cc2)cc1 [Compound 7, 2-(2,5-Difluorphenyl)-4,5-bis(4-methoxyphenyl)imidazole] | 16 | 1.71 | 0.0024 | 0.024 | –
COc1ccc(-c2nc(-c3c(F)cccc3F)[nH]c2-c2ccc(OC)cc2)cc1 [Compound 8, 2-(2,6-Difluorphenyl)-4,5-bis(4-methoxyphenyl)imidazole] | 6.8 | 0.13 | 0.0049 | 0.012 | –
COc1ccc(-c2nc(-c3ccc(F)c(F)c3)[nH]c2-c2ccc(OC)cc2)cc1 [Compound 9, 2-(3,4-Difluorphenyl)-4,5-bis(4-methoxyphenyl)imidazole] | 1.9 | 0.11 | 0.0115 | 0.006 | ED50 [5]: 0.062 mg/kg; TD50 at 5 h [4]: 45 mg/kg
COc1ccc(-c2nc(-c3cc(F)cc(F)c3)[nH]c2-c2ccc(OC)cc2)cc1 [Compound 10, 2-(3,5-Difluorphenyl)-4,5-bis(4-methoxyphenyl)imidazole] | 10 | 0.38 | 0.0097 | 0.12 | LD50 at 168 h (in vivo): > 2000 mg/kg
COc1ccc(-c2nc(C(F)(F)F)[nH]c2-c2ccc(OC)cc2)cc1 [Compound 11, 2-Trifluormethyl-4,5-bis(4-methoxyphenyl)imidazole, reference compound] | 75 | – | – | 0.06 | Analgesic activity (in words) [6]: weaker analgesic activity; Toxicity (in words) (in vivo): higher toxicity than the compounds of the present invention
COc1ccc(-c2nc(C(C)C)[nH]c2-c2ccc(OC)cc2)cc1 [Compound 12, 2-Isopropyl-4,5-bis(4-methoxyphenyl)imidazole, reference compound] | 200 | – | – | – | Analgesic activity (in words) [6]: much weaker analgesic activity than the compounds of the present invention
COc1ccc2c(c1)c(CC(=O)O)c(C)n2C(=O)c1ccc(Cl)cc1 [Compound 13, Indomethacin, reference compound] | – | 0.65 | – | 1.19 | ED50 [5]: 0.36 mg/kg; ED50 ([2]; iv): 0.115 mg/kg; ED50 [1]: 8 mg/kg; ED50 [7]: 28 mg/kg; Ulcerogenic activity ED50 (stomach ulcers): 9.7 mg/kg
COc1ccc2cc([C@H](C)C(=O)O)ccc2c1 [Compound 14, Naproxen, reference compound] | – | 0.49 | – | – | Ulcerogenic activity ED50 (stomach ulcers): 19.5 mg/kg
CC(=O)Oc1ccccc1C(=O)O [Compound 15, Acetyl salicylic acid, reference compound] | – | 7.61 | – | 2.38 | ED50 ([2]; iv): 0.234 mg/kg; ED50 [1]: 100 mg/kg; ED50 [7]: 350 mg/kg; Ulcerogenic activity ED50 (stomach ulcers): 340 mg/kg
CC(C)(C)NCC(O)c1ccc(O)c(CO)c1 (stereo not shown) [Compound 16, Salbutamol, reference compound] | – | – | 0.016 | – | –
